Measured values taken from patent publication US20210255193A1, “LYSINE REACTIVE PROBES AND USES THEREOF” (The Scripps Research Institute, priority 2017, published 2021).

Key:
Experiment in all cases: competitive isoTOP-ABPP
Assay type in all cases: binding
[1] = target: T1, PTRF Polymerase I and transcript release factor (Homo sapiens, UniProt Q6NZI2); conditions: for isoTOP-ABPP ratio (R) at liganded lysine Q6NZI2_K326: sol, 231
T1 construct: isoTOP-ABPP experiments performed in cell lysates (in vitro); endogenous in cells; host or cells: soluble proteome of human cancer cell lines (MDA-MB-231; Ramos and Jurkat also prepared)
T1 sequence (Q6NZI2 1-390): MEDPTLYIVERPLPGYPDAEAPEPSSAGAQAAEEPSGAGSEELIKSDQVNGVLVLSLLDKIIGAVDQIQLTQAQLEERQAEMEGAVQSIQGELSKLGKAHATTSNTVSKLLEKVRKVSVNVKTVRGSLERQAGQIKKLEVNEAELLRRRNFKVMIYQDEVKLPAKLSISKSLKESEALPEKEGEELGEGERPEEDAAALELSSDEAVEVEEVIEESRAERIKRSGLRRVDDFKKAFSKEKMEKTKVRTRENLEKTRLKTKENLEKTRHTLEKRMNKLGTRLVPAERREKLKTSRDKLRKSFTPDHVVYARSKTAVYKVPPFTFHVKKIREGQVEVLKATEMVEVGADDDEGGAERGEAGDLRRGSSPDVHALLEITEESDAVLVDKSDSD
In short: (§1)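 Here, isoTOP-ABPP measures loss of STP-alkyne labeling at individual lysines after fragment exposure in lysate. Activated esters are dosed at 50 μM, guanidinylating agents at 100 μM; the probe follows at 0.1 mM for 1 h. R ≥4 marks a liganded lysine.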

[2] = target: T2, PSMC6 26S protease regulatory subunit 10B (Homo sapiens, UniProt P62333); conditions: for isoTOP-ABPP reactivity ratio at lysine P62333_K72 / isoTOP-ABPP ratio (R) at liganded lysine P62333_K72: 50 uM, in vitro; for isoTOP-ABPP reactivity ratio at lysine P62333_K72: 231 sol; for isoTOP-ABPP ratio (R) at liganded lysine P62333_K72: sol, 231
T2 construct: isoTOP-ABPP experiments performed in cell lysates (in vitro); endogenous in cells; host or cells: soluble proteome of human cancer cell lines (MDA-MB-231, Ramos, Jurkat)
In short: as §1

[3] = target: T3, EEF1A1 Elongation factor 1-alpha 1 (Homo sapiens, UniProt P68104); conditions: for isoTOP-ABPP reactivity ratio at lysine P68104_K84 / isoTOP-ABPP ratio (R) at liganded lysine P68104_K84: 50 uM, in vitro; for isoTOP-ABPP reactivity ratio at lysine P68104_K84: 231 sol; for isoTOP-ABPP ratio (R) at liganded lysine P68104_K84: sol, 231; for isoTOP-ABPP ratio, lysine P68104_K84: 100 uM_231_sol_in vitro
T3 construct: isoTOP-ABPP experiments performed in cell lysates (in vitro); endogenous in cells; host or cells: soluble proteome of human cancer cell lines (MDA-MB-231, Ramos, Jurkat)
T3 sequence (P68104 1-462): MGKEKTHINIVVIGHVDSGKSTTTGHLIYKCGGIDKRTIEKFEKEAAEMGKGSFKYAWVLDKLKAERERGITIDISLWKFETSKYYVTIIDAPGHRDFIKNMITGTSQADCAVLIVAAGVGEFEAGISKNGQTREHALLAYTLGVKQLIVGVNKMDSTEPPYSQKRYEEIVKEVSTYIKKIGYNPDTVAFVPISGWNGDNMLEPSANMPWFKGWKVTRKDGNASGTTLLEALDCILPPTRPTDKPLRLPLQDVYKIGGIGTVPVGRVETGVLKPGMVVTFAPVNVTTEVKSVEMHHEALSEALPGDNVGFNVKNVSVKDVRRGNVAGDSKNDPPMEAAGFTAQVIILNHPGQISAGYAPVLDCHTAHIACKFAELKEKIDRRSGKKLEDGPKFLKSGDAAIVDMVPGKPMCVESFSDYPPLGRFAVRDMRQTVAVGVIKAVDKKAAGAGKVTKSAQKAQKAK
In short: as §1

[4] = target: T4, RPL9P9 60S ribosomal protein L9 (Homo sapiens, UniProt P32969); conditions: for isoTOP-ABPP reactivity ratio at lysine P32969_K82 / isoTOP-ABPP ratio (R) at liganded lysine P32969_K82: 50 uM, in vitro; for isoTOP-ABPP reactivity ratio at lysine P32969_K82: 231 sol; for isoTOP-ABPP ratio (R) at liganded lysine P32969_K82: sol, 231; for isoTOP-ABPP ratio, lysine P32969_K82: 50 uM_231_sol_in vitro
T4 construct: isoTOP-ABPP experiments performed in cell lysates (in vitro); endogenous in cells; host or cells: soluble proteome of human cancer cell lines (MDA-MB-231; Ramos and Jurkat also prepared)
In short: as §1

## Cn1cc(CC(=O)Oc2c(F)c(F)c(F)c(F)c2F)c2ccccc21 [fragment 22, Pentafluorophenyl 2-(1-methyl-1H-indol-3-yl)acetate]
[1]; Q6NZI2_K326, 50 uM, 231 sol, in vitro
  R value (DMSO/fragment) for probe 1 labeling: 20.0

## CCn1cc(C(=O)Oc2c(F)c(F)c(F)c(F)c2F)c(=O)c2ccc(C)nc21 [fragment 28, Pentafluorophenyl 1-ethyl-7-methyl-4-oxo-1,4-dihydro-1,8-naphthyridine-3-carboxylate]
[2]
  isoTOP-ABPP reactivity ratio at lysine P62333_K72: 20.0

## O=C(CCc1cn(-c2ccccc2)nc1-c1ccccc1)Oc1ccc([N+](=O)[O-])cc1[N+](=O)[O-] [fragment 29, 2,4-Dinitrophenyl 3-(1,3-diphenyl-1H-pyrazol-4-yl)propanoate]
[3]
  isoTOP-ABPP reactivity ratio at lysine P68104_K84: 20.0
[2]
  isoTOP-ABPP reactivity ratio at lysine P62333_K72: 20.0
[1]; 50 uM, 231 sol, in vitro
  isoTOP-ABPP reactivity ratio at lysine Q6NZI2_K326: 20.0

## O=C(Oc1ccc([N+](=O)[O-])cc1[N+](=O)[O-])C(c1ccccc1)c1ccccc1 [fragment 30, 2,4-Dinitrophenyl 2,2-diphenylacetate]
[3]
  isoTOP-ABPP reactivity ratio at lysine P68104_K84: 0.5

## O=C(Oc1ccc([N+](=O)[O-])cc1[N+](=O)[O-])c1cc(C(F)(F)F)cc(C(F)(F)F)c1 [fragment 31, 2,4-Dinitrophenyl 3,5-bis(trifluoromethyl)benzoate]
[3]
  isoTOP-ABPP reactivity ratio at lysine P68104_K84: 0.4
[4]
  isoTOP-ABPP reactivity ratio at lysine P32969_K82: 0.9

## Cn1cc(CC(=O)Oc2ccc([N+](=O)[O-])cc2[N+](=O)[O-])c2ccccc21 [fragment 32, 2,4-Dinitrophenyl 2-(1-methyl-1H-indol-3-yl)acetate]
[3]
  isoTOP-ABPP reactivity ratio at lysine P68104_K84: 0.4
[2]
  isoTOP-ABPP reactivity ratio at lysine P62333_K72: 1.4
[4]
  isoTOP-ABPP reactivity ratio at lysine P32969_K82: 1.0

## O=C(Oc1ccc([N+](=O)[O-])cc1[N+](=O)[O-])c1ccc2ccccc2n1 [fragment 35, 2,4-Dinitrophenyl quinoline-2-carboxylate]
[4]
  isoTOP-ABPP ratio (R) at liganded lysine P32969_K82: 0.8

## O=C(CCc1coc2cc(F)ccc2c1=O)Oc1ccc([N+](=O)[O-])cc1[N+](=O)[O-] [fragment 36, 2,4-Dinitrophenyl 3-(7-fluoro-4-oxo-4H-chromen-3-yl)propanoate]
[3]
  isoTOP-ABPP ratio (R) at liganded lysine P68104_K84: 0.7

## O=C(Oc1ccc([N+](=O)[O-])cc1[N+](=O)[O-])c1ccc(-c2ccccc2)cc1 [fragment 37, 2,4-Dinitrophenyl [1,1′-biphenyl]-4-carboxylate]
[3]
  isoTOP-ABPP ratio (R) at liganded lysine P68104_K84: 20.0
[2]
  isoTOP-ABPP ratio (R) at liganded lysine P62333_K72: 0.9
[1]; 50 uM, in vitro
  isoTOP-ABPP ratio (R) at liganded lysine Q6NZI2_K326: 20.0

## O=C(Oc1ccc([N+](=O)[O-])cc1[N+](=O)[O-])c1ccc(Oc2ccccc2)cc1 [fragment 39, 2,4-Dinitrophenyl 4-phenoxybenzoate]
[2]
  isoTOP-ABPP ratio (R) at liganded lysine P62333_K72: 1.1
[1]; 50 uM, in vitro
  isoTOP-ABPP ratio (R) at liganded lysine Q6NZI2_K326: 0.8
[4]
  isoTOP-ABPP ratio (R) at liganded lysine P32969_K82: 0.7

## O=C(Oc1ccc([N+](=O)[O-])cc1[N+](=O)[O-])c1ccccc1Nc1cccc(C(F)(F)F)c1 [fragment 40, 2,4-Dinitrophenyl 2-((3-(trifluoromethyl)phenyl)amino)benzoate]
[1]; 50 uM, in vitro
  isoTOP-ABPP ratio (R) at liganded lysine Q6NZI2_K326: 20.0

## CC(C)(C)OC(=O)NCCCC(=O)Oc1ccc([N+](=O)[O-])cc1[N+](=O)[O-] [fragment 41, 2,4-Dinitrophenyl 4-((tert-butoxycarbonyl)amino)butanoate]
[2]
  isoTOP-ABPP ratio (R) at liganded lysine P62333_K72: 1.2
[4]
  isoTOP-ABPP ratio (R) at liganded lysine P32969_K82: 0.9

## CC(=O)Oc1ccc([N+](=O)[O-])cc1[N+](=O)[O-] [fragment 43, 2,4-Dinitrophenyl acetate]
[3]
  isoTOP-ABPP ratio (R) at liganded lysine P68104_K84: 0.7
[2]
  isoTOP-ABPP ratio (R) at liganded lysine P62333_K72: 1.9
[4]
  isoTOP-ABPP ratio (R) at liganded lysine P32969_K82: 0.9

## N#Cc1ccc(C(=O)Oc2ccc([N+](=O)[O-])cc2[N+](=O)[O-])cc1 [fragment 44, 2,4-Dinitrophenyl 4-cyanobenzoate]
[4]
  isoTOP-ABPP ratio, lysine P32969_K82: 14.5

## O=C(CCc1ccc2c(c1)OCO2)Oc1ccc([N+](=O)[O-])cc1[N+](=O)[O-] [fragment 45, 2,4-Dinitrophenyl 3-(benzo[d][1,3]dioxol-5-yl)propanoate]
[1]; 50 uM_231_sol_in vitro
  isoTOP-ABPP ratio, lysine Q6NZI2_K326: 0.9
[4]
  isoTOP-ABPP ratio, lysine P32969_K82: 1.0

## O=C(ON1C(=O)CCC1=O)c1cc(C(F)(F)F)cc(C(F)(F)F)c1 [fragment 46, 3,5-Bis(trifluoromethyl)benzoic acid NHS ester]
[2]; 50 uM_231_sol_in vitro
  isoTOP-ABPP ratio, lysine P62333_K72: 0.9
[4]
  isoTOP-ABPP ratio, lysine P32969_K82: 0.5

## COC(=O)NC(=NC(=O)OCC1c2ccccc2-c2ccccc21)n1cccn1 [fragment 49, N-Methoxycarbonyl-N′-9-fluorenylmethoxycarbonyl-pyrazole-1-carboxamidine]
[3]
  isoTOP-ABPP ratio, lysine P68104_K84: 1.2

## CC(C)(C)OC(=O)N=C(NC(=O)OC(C)(C)C)n1cccn1 [fragment 50, reference compound]
[3]
  isoTOP-ABPP ratio, lysine P68104_K84: 1.3
[2]; 100 uM_231_sol_in vitro
  isoTOP-ABPP ratio, lysine P62333_K72: 1.3
